Here are results for one molecule from US9072293B2, “Cyclopropenes and method for applying cyclopropenes to agricultural products or crops” (Erum Biotechnologies Inc., priority 2010, dated 2015).

Values joined by “and” are separate entries in the source; they are usually repeats but may differ in a detail not shown here. Equal values may be shown once.

Data set [1] in a line: Relative chemical stability of cyclopropenes measured by 1H-NMR. The data set is classed as physicochemical. To be noted: 1H-NMR, CDCl3, stored at −20° C. or room temperature; relative to chain length 1. The text has this: A variety of analysis methods can be used to analyze the derivatives of Formula 6, since the absorbance of cyclopropenes containing an aryl group can be easily measured in the UV range. It can be confirmed that the chemical stability of the derivatives increases, when the length of chains to link an aryl ring to a cyclopropene ring is 2 or more. […] It is supposed that the stability of cyclopropenes increase due to the fact that π electrons of aryl groups affect π electrons of cyclopropenes.
The following Table 1 summarizes the relative chemical stability of cyclopropenes having a chain length of 2, 3, 4 or 5, based on the chemical stability of cyclopropenes having a chain length of 1. In the case of cyclopropene having a chain length of 1, the structure thereof can be confirmed via ^1H-NMR within one hour following synthesis (degraded to a level of 50% or more within one hour at 30° C.). In the case of cyclopropene having a chain length of zero, synthesis thereof was attempted in accordance with the present invention, but was impossible by a conventional method. Meanwhile, in the case of cyclopropenes having a chain length of 2 or more, the structure thereof can be precisely confirmed by ^1H-NMR as well as ^13C-NMR. The stability of these cyclopropenes was measured by ^1H-NMR while NMR cells (CDCl3) were stored at −20° C. or room temperature. In particular, cyclopropenes having chains of 3 or more were so stable that their half-life reached 5 days or longer at −20° C. or lower. In ^1H-NMR analysis, the stability was evaluated by comparing integral values at 4 to 6.5 ppm (1H) and 0.8 to 0.9 ppm (2H), characteristic peaks of 1-alkylcyclopropenes, using a small amount of 1,1,3,3-tetramethylurea (2.80 ppm) as an internal standard. Furthermore, the stability was also qualitatively evaluated by comparing integral value of the peak newly generated adjacent to the peak of the olefin proton of cyclopropene ring, as a 1-alkylcyclopropene compound is decomposed.

Another data set deals with tomato. The experiment in a line: Experimental Example 3: Efficacy test on tomato for other drugs (emulsion and oil-based formulation). Conditions: individual tomatoes n=4. In kind it is in vivo. As for the experimental part: At this time, the tops of tomatoes most early turned red, while the bottoms thereof most lately turned red. For this reason, in order to accurately evaluate the difference in reddening, the coloring evaluated was based on the area of red color, rather than the color of tomatoes. […] Accordingly, the grade level is proportional to the rate at which the tomatoes ripened.
1.0 mM emulsions and oil-based formulations of four agents, i.e., 1-(2-(4-methoxyphenyl)ethyl)cyclopropene, 1-(3-(4-methoxyphenyl)propyl)cyclopropene, 1-(3-phenoxypropyl)cyclopropene and 1-(4-phenoxybutyl)cyclopropene were prepared in accordance with Examples 1 and 2.
The tomatoes were screened in the same manner as in Experimental Example 1 and divided into 9 groups (n=4), i.e., a non-treated group and 4 emulsion-type agent groups and 4 oil-based formulation-type agent groups. Tomatoes were treated with the previously prepared agent using a household sprayer such that the surface thereof was saturated. The tomatoes were stood at room temperature (25-30° C.) for 3 days and a reddening level thereof was evaluated based on grades of 0 to 5.

On to `C1=C(CCCCOc2ccccc2)C1` [(4-Phenoxybutyl), 1-(4-phenoxybutyl)cyclopropene], for which the “Stability (relative chemical stability, based on cyclopropenes having a chain length of 1)” value in data set [1] is >>10. The “reddening level (grade 0 to 5)” value was 0 (an area in which the surface of tomato was colored in pink was 10% or less) (2×) and 1 (an area in which the surface of tomato was completely colored in red was 10 to 40%) and 2 (an area in which the surface of tomato was completely colored in red was 40 to 70%) in the data set with tomato (1.0 mM Emulsion, Day 0, room temperature (25-30° C.)); 0 (an area in which the surface of tomato was colored in pink was 10% or less) (2×) and 2 (an area in which the surface of tomato was completely colored in red was 40 to 70%) (2×) in the data set on tomato (1.0 mM Emulsion, Day 1, room temperature (25-30° C.)); 1 (an area in which the surface of tomato was completely colored in red was 10 to 40%) (2×) and 3 (an area in which the surface of tomato was completely colored in red was 70% or more and the bottom area remained green) (2×) in the data set on tomato (1.0 mM Emulsion, Day 2, room temperature (25-30° C.)); 2 (an area in which the surface of tomato was completely colored in red was 40 to 70%) (2×) and 4 (2×) with tomato (1.0 mM Emulsion, Day 3, room temperature (25-30° C.)); 0 (an area in which the surface of tomato was colored in pink was 10% or less) (2×) and 1 (an area in which the surface of tomato was completely colored in red was 10 to 40%) and 2 (an area in which the surface of tomato was completely colored in red was 40 to 70%) in the data set with tomato (1.0 mM Oil-based formulation, Day 0, room temperature (25-30° C.)); 0 (an area in which the surface of tomato was colored in pink was 10% or less) (2×) and 1 (an area in which the surface of tomato was completely colored in red was 10 to 40%) and 2 (an area in which the surface of tomato was completely colored in red was 40 to 70%) in the data set on tomato (1.0 mM Oil-based formulation, Day 1, room temperature (25-30° C.)). Moreover, the “reddening level (grade 0 to 5)” value in the data set on tomato (1.0 mM Oil-based formulation, Day 2, room temperature (25-30° C.)) is 0 (an area in which the surface of tomato was colored in pink was 10% or less) and 1 (an area in which the surface of tomato was completely colored in red was 10 to 40%) and 2 (an area in which the surface of tomato was completely colored in red was 40 to 70%) (2×); in the data set with tomato (1.0 mM Oil-based formulation, Day 3, room temperature (25-30° C.)) it was 1 (an area in which the surface of tomato was completely colored in red was 10 to 40%) (2×) and 3 (an area in which the surface of tomato was completely colored in red was 70% or more and the bottom area remained green) (2×).
